# Paper PMC3961306, “Comparison of the Cancer Gene Targeting and Biochemical Selectivities of All Targeted Kinase Inhibitors Approved for Clinical Use” (PLoS ONE, 2014)
# Columns and labels:
# Assay in all cases: Kinase profiling in a biochemical assay panel (mobility shift assays and ELISA), %-inhibition at 1 μM; selectivity entropy
# [1] = biological target: T1, panel of more than 300 wild-type and mutant kinases (313 kinase panel) (Homo sapiens, UniProt Q06418)
# T1 sequence (Q06418 41-890): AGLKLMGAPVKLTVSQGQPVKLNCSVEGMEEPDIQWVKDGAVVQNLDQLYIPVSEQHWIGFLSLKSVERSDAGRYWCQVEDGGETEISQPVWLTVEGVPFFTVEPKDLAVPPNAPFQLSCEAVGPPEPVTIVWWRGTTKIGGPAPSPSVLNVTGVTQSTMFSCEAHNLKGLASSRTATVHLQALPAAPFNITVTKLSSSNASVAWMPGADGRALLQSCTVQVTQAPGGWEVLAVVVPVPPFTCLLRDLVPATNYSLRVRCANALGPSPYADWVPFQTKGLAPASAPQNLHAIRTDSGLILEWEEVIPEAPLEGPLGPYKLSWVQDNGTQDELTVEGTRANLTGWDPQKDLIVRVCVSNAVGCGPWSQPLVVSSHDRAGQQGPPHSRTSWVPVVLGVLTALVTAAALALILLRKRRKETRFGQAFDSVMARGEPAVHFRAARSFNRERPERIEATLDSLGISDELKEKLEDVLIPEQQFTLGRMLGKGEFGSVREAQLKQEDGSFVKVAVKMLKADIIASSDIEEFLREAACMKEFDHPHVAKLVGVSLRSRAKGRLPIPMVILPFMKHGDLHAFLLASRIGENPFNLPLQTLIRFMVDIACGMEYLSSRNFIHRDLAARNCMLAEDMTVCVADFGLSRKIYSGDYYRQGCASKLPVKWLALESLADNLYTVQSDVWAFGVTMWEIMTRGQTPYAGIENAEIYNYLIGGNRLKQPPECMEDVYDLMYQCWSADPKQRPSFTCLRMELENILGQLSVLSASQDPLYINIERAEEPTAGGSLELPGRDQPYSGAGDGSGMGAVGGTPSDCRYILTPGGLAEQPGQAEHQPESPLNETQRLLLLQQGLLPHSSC
# [2] = biological target: T2, panel of more than 300 wild-type and mutant kinases (313 kinase panel) (Homo sapiens, UniProt Q96L34); conditions: kinase MARK4; compound at 1 μM
# T2 sequence (Q96L34 1-752): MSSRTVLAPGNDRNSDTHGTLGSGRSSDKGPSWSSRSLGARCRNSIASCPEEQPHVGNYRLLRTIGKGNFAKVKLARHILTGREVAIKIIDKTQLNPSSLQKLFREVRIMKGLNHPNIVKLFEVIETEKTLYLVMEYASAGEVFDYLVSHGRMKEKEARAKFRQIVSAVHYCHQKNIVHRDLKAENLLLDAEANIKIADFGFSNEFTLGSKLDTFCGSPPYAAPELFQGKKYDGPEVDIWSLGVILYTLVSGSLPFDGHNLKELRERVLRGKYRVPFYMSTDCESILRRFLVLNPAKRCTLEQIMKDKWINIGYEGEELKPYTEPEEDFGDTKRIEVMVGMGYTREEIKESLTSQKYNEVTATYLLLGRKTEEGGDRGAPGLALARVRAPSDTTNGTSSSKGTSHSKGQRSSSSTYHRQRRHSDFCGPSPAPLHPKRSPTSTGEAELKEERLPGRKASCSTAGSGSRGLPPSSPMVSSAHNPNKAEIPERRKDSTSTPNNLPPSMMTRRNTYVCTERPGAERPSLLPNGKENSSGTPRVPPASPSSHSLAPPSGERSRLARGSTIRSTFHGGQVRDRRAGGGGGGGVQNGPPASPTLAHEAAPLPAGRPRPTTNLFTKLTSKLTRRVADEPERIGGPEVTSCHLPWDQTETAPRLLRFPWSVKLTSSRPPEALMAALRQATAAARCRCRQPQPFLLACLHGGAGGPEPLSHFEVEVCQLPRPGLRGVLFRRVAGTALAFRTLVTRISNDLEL
# [3] = biological target: panel of more than 300 wild-type and mutant kinases (313 kinase panel) (Homo sapiens, UniProt P27361)
# [4] = biological target: panel of more than 300 wild-type and mutant kinases (313 kinase panel) (Homo sapiens, UniProt P07949, G691S)
# [5] = biological target: panel of more than 300 wild-type and mutant kinases (313 kinase panel) (Homo sapiens, UniProt P14616)
# [6] = biological target: panel of more than 300 wild-type and mutant kinases (313 kinase panel) (Homo sapiens, UniProt Q02779); conditions: kinase MLK2; 1 μM
# [7] = biological target: panel of more than 300 wild-type and mutant kinases (313 kinase panel) (Homo sapiens, UniProt Q16288); conditions: kinase TRKC; 1 μM
# [8] = biological target: panel of more than 300 wild-type and mutant kinases (313 kinase panel) (Homo sapiens, UniProt P78368); conditions: kinase CK1γ2; 1 μM compound
# [9] = biological target: panel of more than 300 wild-type and mutant kinases (313 kinase panel) (Homo sapiens, UniProt P31749)
# [10] = biological target: panel of more than 300 wild-type and mutant kinases (313 kinase panel) (Homo sapiens, UniProt Q9BUB5)
# [11] = biological target: panel of more than 300 wild-type and mutant kinases (313 kinase panel) (Homo sapiens, UniProt Q9Y5S2); conditions: kinase MRCKβ; 1 μM
Compound,"%-inhibition of TYRO3 ([1]; kinase TYRO3, compound at 1 μM) [%]",%-inhibition of MARK4 [2] [%],"%-inhibition of Erk1 ([3]; kinase Erk1, compound at 1 μM) [%]","%-inhibition of RET(G691S) ([4]; kinase RET(G691S), 1 μM) [%]","%-inhibition of IRR ([5]; kinase IRR, compound at 1 μM) [%]",%-inhibition of MLK2 [6] [%],%-inhibition of TRKC [7] [%],"%-inhibition, CK1γ2 [8] [%]","%-inhibition, AKT1 ([9]; kinase AKT1, 1 μM compound) [%]","%-inhibition of MNK1 ([10]; kinase MNK1, 1 μM) [%]",%-inhibition of MRCKβ [11] [%],"%-inhibition, AKT1 ([9]; 1 µM) [%]",%-inhibition of TYRO3 ([1]; 1 µM) [%],%-inhibition of RET(G691S) ([4]; 1 µM) [%],%-inhibition of IRR ([5]; 1 µM) [%],%-inhibition of MNK1 ([10]; 1 µM) [%],%-inhibition of Erk1 ([3]; 1 µM) [%]
CCN(CC)CCNC(=O)c1c(C)[nH]c(/C=C2\C(=O)Nc3ccc(F)cc32)c1C [sunitinib],98,92,,,,,,,,,,,,,,,
O=S(=O)(c1cccc2cnccc12)N1CCCNCC1 [fasudil],-1.23,-21,-3,-0.0546,0.15,-10,-5.34,18,4.44,15,,,,,,,
N#CC[C@H](C1CCCC1)n1cc(-c2ncnc3[nH]ccc23)cn1 [ruxolitinib],-3,53,-2.29,,0.404,22,,-0.393,-5,8.57,20,,,,,,
COc1cc2nccc(Oc3ccc(NC(=O)C4(C(=O)Nc5ccc(F)cc5)CC4)cc3)c2cc1OC [cabozantinib],,-9,-1.33,,66,6.67,98,0.731,-4.52,11,-3,,,,,,
CC(C)(C)c1nc(-c2cccc(NS(=O)(=O)c3c(F)cccc3F)c2F)c(-c2ccnc(N)n2)s1 [dabrafenib],,-27,-1.62,53,10,47,81,,,20,-2.85,,,,,,
C[C@@H](Oc1cc(-c2cnn(C3CCNCC3)c2)cnc1N)c1c(Cl)ccc(F)c1Cl [crizotinib],,51,-2,,,4.7,,,-7,0,-2,,,,,,
COc1cc2c(Nc3ccc(Br)cc3F)ncnc2cc1OCC1CCN(C)CC1 [vandetanib],94,2.39,-1.55,,-3.23,12,15,-2,,91,-16,-4.52,,,,,
Cc1ccc(C(=O)Nc2ccc(CN3CCN(C)CC3)c(C(F)(F)F)c2)cc1C#Cc1cnc2cccnn12 [ponatinib],45,-2.58,,102,,39,103,0.169,,30,1.18,,,,,,
Cc1ccc(Nc2nccc(N(C)c3ccc4c(C)n(C)nc4c3)n2)cc1S(N)(=O)=O [pazopanib],27,9,-3.79,,16,18,21,-0.747,-2,-2,1.15,,,,,,
Cc1cn(-c2cc(NC(=O)c3ccc(C)c(Nc4nccc(-c5cccnc5)n4)c3)cc(C(F)(F)F)c2)cn1 [nilotinib],,12,3.21,,,-1.7,,5.57,11,,-10,,-32,13,-0.717,-1.26,
Cc1nc(Nc2ncc(C(=O)Nc3c(C)cccc3Cl)s2)cc(N2CCN(CCO)CC2)n1 [dasatinib],,,,,-16,,,20,,,,,,,,,
COc1cc(Nc2c(C#N)cnc3cc(OCCCN4CCN(C)CC4)c(OC)cc23)c(Cl)cc1Cl [bosutinib],,,,94,57,58,,-2.3,,-4.37,66,-5.47,,,,,1.12
